Results as given in the NIST ThermoML archive (doi:10.1016/j.jct.2007.01.017).

Legend:
[1] = excess molar enthalpy (molar enthalpy of mixing); xn = mol fraction of the nth substance listed; details: 101 kPa, Liquid, Flow calorimetry
[2] = 298.15 K; 101.33 kPa; Liquid

CCCCCCCl [1-chlorohexane] + CN(C)C=O
[1]
Details | excess molar enthalpy [kcal/mol]
298.15 K, x2 = 0.058 | 0.0385
298.15 K, x2 = 0.107 | 0.0731
298.15 K, x2 = 0.205 | 0.13
298.15 K, x2 = 0.303 | 0.166
298.15 K, x2 = 0.402 | 0.1917
298.15 K, x2 = 0.5 | 0.2024
298.15 K, x2 = 0.598 | 0.1965
298.15 K, x2 = 0.697 | 0.177
298.15 K, x2 = 0.796 | 0.139
298.15 K, x2 = 0.894 | 0.0803
298.15 K, x2 = 0.944 | 0.0418
308.15 K, x2 = 0.062 | 0.0344
308.15 K, x2 = 0.111 | 0.0755
308.15 K, x2 = 0.208 | 0.133
308.15 K, x2 = 0.305 | 0.172
308.15 K, x2 = 0.403 | 0.1974
308.15 K, x2 = 0.501 | 0.2079
308.15 K, x2 = 0.6 | 0.2027
308.15 K, x2 = 0.699 | 0.182
308.15 K, x2 = 0.798 | 0.143
308.15 K, x2 = 0.897 | 0.0834
308.15 K, x2 = 0.947 | 0.0437
308.15 K, x2 = 0.967 | 0.0258

CCCCCCCCCl [1-chlorooctane]
Details | mass density [kg/m3]
[2] | 868.98

CCCCCCCCCl [1-chlorooctane] + CC(=O)N(C)C
[1]
Details | excess molar enthalpy [kcal/mol]
298.15 K, x2 = 0.067 | 0.0325
298.15 K, x2 = 0.117 | 0.0652
298.15 K, x2 = 0.215 | 0.124
298.15 K, x2 = 0.313 | 0.162
298.15 K, x2 = 0.411 | 0.186
298.15 K, x2 = 0.508 | 0.1981
298.15 K, x2 = 0.606 | 0.1962
298.15 K, x2 = 0.703 | 0.179
298.15 K, x2 = 0.8 | 0.146
298.15 K, x2 = 0.897 | 0.0884
298.15 K, x2 = 0.945 | 0.0483
308.15 K, x2 = 0.061 | 0.0323
308.15 K, x2 = 0.11 | 0.0655
308.15 K, x2 = 0.207 | 0.127
308.15 K, x2 = 0.305 | 0.168
308.15 K, x2 = 0.403 | 0.1953
308.15 K, x2 = 0.501 | 0.2089
308.15 K, x2 = 0.6 | 0.2082
308.15 K, x2 = 0.699 | 0.1912
308.15 K, x2 = 0.798 | 0.156
308.15 K, x2 = 0.898 | 0.0946
308.15 K, x2 = 0.948 | 0.0516
308.15 K, x2 = 0.968 | 0.0301

CCCCCCCCCl [1-chlorooctane] + CN(C)C=O
[1]
Details | excess molar enthalpy [kcal/mol]
298.15 K, x2 = 0.064 | 0.0416
298.15 K, x2 = 0.113 | 0.0863
298.15 K, x2 = 0.21 | 0.163
298.15 K, x2 = 0.308 | 0.212
298.15 K, x2 = 0.405 | 0.2459
298.15 K, x2 = 0.502 | 0.2598
298.15 K, x2 = 0.6 | 0.256
298.15 K, x2 = 0.698 | 0.2337
298.15 K, x2 = 0.795 | 0.189
298.15 K, x2 = 0.893 | 0.117
298.15 K, x2 = 0.942 | 0.0633
308.15 K, x2 = 0.069 | 0.0509
308.15 K, x2 = 0.117 | 0.092
308.15 K, x2 = 0.212 | 0.162
308.15 K, x2 = 0.309 | 0.2192
308.15 K, x2 = 0.406 | 0.2543
308.15 K, x2 = 0.503 | 0.2696
308.15 K, x2 = 0.601 | 0.2665
308.15 K, x2 = 0.699 | 0.2433
308.15 K, x2 = 0.798 | 0.198
308.15 K, x2 = 0.898 | 0.12
308.15 K, x2 = 0.948 | 0.0669
308.15 K, x2 = 0.968 | 0.0399

CC(=O)N(C)C [N,N-dimethylethanamide]
Details | mass density [kg/m3]
[2] | 936.34

CN(C)C=O [dimethylformamide]
Details | mass density [kg/m3]
[2] | 943.81
